Assay results from the supplement of paper PMC13380429.

Key:
Details in all cases: 72 h
HepG2 [1] = test: cell viability relative to DMSO; higher = less toxic
Calu-3 [2] = test: as above
Caco-2 [3] = test: as above
U2OS [4] = test: as above
Vero E6 [5] = test: as above
HepG2 [6] = test: relative viability EC50 (midpoint between 100% and the lowest measured viability); higher = less toxic
Calu-3 [7] = test: as above
Caco-2 [8] = test: as above
U2OS [9] = test: as above
Vero E6 [10] = test: as above
HepG2 [11] = test: drug sensitivity score (DSS) for viability; higher = more toxic; extreme values may be limits of the assay
Calu-3 [12] = test: as above
Caco-2 [13] = test: as above
U2OS [14] = test: as above
Vero E6 [15] = test: as above

SMILES | cell viability (HepG2 [1]; 1 nM) [%] | cell viability (HepG2 [1]; 10 nM) [%] | cell viability (HepG2 [1]; 100 nM) [%] | cell viability (HepG2 [1]; 1000 nM) [%] | cell viability (HepG2 [1]; 10000 nM) [%] | cell viability (Calu-3 [2]; 1 nM) [%] | cell viability (Calu-3 [2]; 10 nM) [%] | cell viability (Calu-3 [2]; 100 nM) [%] | cell viability (Calu-3 [2]; 1000 nM) [%] | cell viability (Calu-3 [2]; 10000 nM) [%] | cell viability (Caco-2 [3]; 1 nM) [%] | cell viability (Caco-2 [3]; 10 nM) [%] | cell viability (Caco-2 [3]; 100 nM) [%] | cell viability (Caco-2 [3]; 1000 nM) [%] | cell viability (Caco-2 [3]; 10000 nM) [%] | cell viability (U2OS [4]; 1 nM) [%] | cell viability (U2OS [4]; 10 nM) [%] | cell viability (U2OS [4]; 100 nM) [%] | cell viability (U2OS [4]; 1000 nM) [%] | cell viability (U2OS [4]; 10000 nM) [%] | cell viability (Vero E6 [5]; 1 nM) [%] | cell viability (Vero E6 [5]; 10 nM) [%] | cell viability (Vero E6 [5]; 100 nM) [%] | cell viability (Vero E6 [5]; 1000 nM) [%] | cell viability (Vero E6 [5]; 10000 nM) [%] | relative viability EC50 (HepG2 [6]) [µM] | relative viability EC50 (Calu-3 [7]) [µM] | relative viability EC50 (Caco-2 [8]) [µM] | relative viability EC50 (U2OS [9]) [µM] | relative viability EC50 (Vero E6 [10]) [µM] | drug sensitivity score (HepG2 [11]) | drug sensitivity score (Calu-3 [12]) | drug sensitivity score (Caco-2 [13]) | drug sensitivity score (U2OS [14]) | drug sensitivity score (Vero E6 [15])
CCOC(=O)Nc1ccc2c(c1)N(C(=O)CN(CC)CC)c1ccccc1CC2 [CINPA-1] | 97.7 | 106 | 99.1 | 96.7 | 93.7 | 109 | 99.6 | 99.5 | 91.9 | 107 | 103 | 96.1 | 100 | 100 | 92.2 | 105 | 102 | 99.5 | 97.6 | 99.1 | 95.2 | 106 | 96.6 | 100 | 91 | > 10 | > 10 | > 10 | > 10 | > 10 | 0 | 0 | 0 | 0 | 0
C=CC(=O)Nc1cccc(Nc2nc(Nc3ccc(Oc4ccnc(C(=O)NC)c4)cc3)ncc2F)c1 [CNX-774] | 98.6 | 104 | 110 | 91.4 | 31.8 | 92.8 | 102 | 99.6 | 96.3 | 86.6 | 98.7 | 105 | 103 | 90.4 | 30 | 92.4 | 111 | 98.3 | 83.9 | 32.9 | 98.1 | 98.1 | 103 | 90.7 | 26.9 | 2.15 | > 10 | 2.07 | 1.58 | 2.14 | 5.2 | 0.4 | 5.5 | 6.2 | 5.6
CCCCNc1nc(N)c2[nH]c(=O)n(Cc3ccc(OCCN(C)C)nc3)c2n1 [DSR-6434] | 103 | 102 | 91 | 94.4 | 97.1 | 90.4 | 104 | 95.2 | 89.6 | 101 | 93.3 | 98.6 | 92.7 | 100 | 95.9 | 96.9 | 97.9 | 99 | 101 | 97 | 97.6 | 99.1 | 98.8 | 93.6 | 96.3 | > 10 | > 10 | > 10 | > 10 | > 10 | 0 | 0 | 0 | 0 | 0
Cn1c(=O)c2c(ncn2CC(=O)Nc2ccc(-c3ccccc3)nn2)n(C)c1=O [ETC-159] | 94 | 89.4 | 106 | 87.4 | 79.2 | 98.1 | 94 | 103 | 113 | 110 | 91.7 | 91.3 | 98.3 | 93.5 | 79.9 | 95.1 | 96.7 | 93.4 | 99.2 | 98.5 | 97.1 | 97.8 | 93.7 | 89.4 | 94.7 | > 10 | > 10 | > 10 | > 10 | > 10 | 1.9 | 0 | 0.5 | 0 | 0
O=C(N[C@H]1CN2CCC1CC2)c1cc2cccc(Cl)c2s1 [EVP-6124] | 90.6 | 95 | 106 | 92.7 | 94.7 | 87.9 | 92 | 89.1 | 98.5 | 85.1 | 94.6 | 97.5 | 98.2 | 101 | 92.9 | 104 | 100 | 95 | 103 | 95.2 | 95.6 | 92.2 | 97.8 | 96 | 92.9 | > 10 | > 10 | > 10 | > 10 | > 10 | 0 | 0 | 0 | 0 | 0
O=C(O)CCc1ccc(NCc2cccc(Oc3ccccc3)c2)cc1 [GW-9508] | 97.1 | 101 | 96.9 | 99.8 | 96 | 90.9 | 100 | 107 | 106 | 104 | 95.4 | 98.4 | 102 | 112 | 106 | 91.9 | 97 | 98.6 | 102 | 97.6 | 94.1 | 96.1 | 97.8 | 95.2 | 101 | > 10 | > 10 | > 10 | > 10 | > 10 | 0 | 0 | 0 | 0 | 0
